Source: patent US10987316B2, “Compositions and methods for transdermal delivery of tertiary amine drugs” (priority 2013, dated 2021)

Test: In vitro flux of rivastigmine liquid across human skin only
Format: in vitro ADME
Details: rivastigmine liquid infinite dose 0.5 ml/cm^2
Procedure: The flux of rivatsigmine liquid (“infinite-dose” of 0.5 ml/cm^2) across systems prepared using different rate controlling membranes (with different vinyl acetate contents and different thicknesses) with or without a 5 mg/cm^2 silicone face adhesive was assessed in an in vitro flux study, as shown below.

Structure (SMILES): CCN(C)C(=O)Oc1cccc([C@H](C)N(C)C)c1 [Rivastigmine, (S)-3-[1-(dimethylamino)ethyl]phenyl ethylmethylcarbamate]
- Rivastigmine steady-state flux, human skin only: 32 ± 14 μg/cm^2/hr
